Data published in ChEMBL document CHEMBL5705887, “Distinct concentration-dependent effects of the polo-like kinase 1-specific inhibitor GSK461364A, including differential effect on apoptosis” (Cancer Res, 2009).
Active and inactive are the calls of the source. No cut-off for these calls is given here.

Assays:
[1] = test system: A704; experiment: Antiproliferative activity against human A704 cells assessed as viable cell signal at maximum growth inhibition incubated for 72 hrs by celltiter-glo assay relative to control; format: functional
[2] = biological target: Cyclin-dependent kinase 1/cyclin B1 (Homo sapiens) (UniProt P06493+P14635); experiment: Inhibition of C-terminal his6-tagged recombinant human CDK1/full length N-terminal GST-tagged recombinant human cyclin B expressed in baculovirus Sf21 insect cells at 10 uM relative to control
Sequence of Cyclin-dependent kinase 1/cyclin B1 (Homo sapiens) (P06493 whole entry, looked up): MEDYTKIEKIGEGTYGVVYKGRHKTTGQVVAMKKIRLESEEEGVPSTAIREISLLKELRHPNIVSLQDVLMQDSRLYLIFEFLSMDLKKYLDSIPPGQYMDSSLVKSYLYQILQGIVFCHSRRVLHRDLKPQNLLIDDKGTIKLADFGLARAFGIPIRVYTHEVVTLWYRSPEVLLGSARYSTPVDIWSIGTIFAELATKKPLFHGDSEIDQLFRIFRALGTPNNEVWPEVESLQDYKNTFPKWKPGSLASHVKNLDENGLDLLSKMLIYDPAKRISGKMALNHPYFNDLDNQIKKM
Sequence of Cyclin-dependent kinase 1/cyclin B1 (Homo sapiens) (P14635 whole entry, looked up): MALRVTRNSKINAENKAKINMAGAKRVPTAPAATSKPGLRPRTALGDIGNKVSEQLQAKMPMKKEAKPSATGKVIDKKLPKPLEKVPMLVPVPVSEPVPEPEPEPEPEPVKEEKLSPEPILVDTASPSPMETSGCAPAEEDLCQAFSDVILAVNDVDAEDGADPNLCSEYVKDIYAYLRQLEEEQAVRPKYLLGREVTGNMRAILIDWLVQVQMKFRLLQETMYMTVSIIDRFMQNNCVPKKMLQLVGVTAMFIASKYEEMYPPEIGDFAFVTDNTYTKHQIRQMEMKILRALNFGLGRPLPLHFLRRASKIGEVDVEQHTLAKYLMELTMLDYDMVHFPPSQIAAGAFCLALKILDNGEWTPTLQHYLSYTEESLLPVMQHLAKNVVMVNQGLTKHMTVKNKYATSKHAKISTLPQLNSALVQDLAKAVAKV

[3] = test system: Hep 3B2; experiment: Antiproliferative activity against human Hep3B cells assessed as growth inhibition incubated for 72 hrs by celltiter-glo assay; format: functional
[4] = test system: HCC1954; experiment: Antiproliferative activity against human HCC1954 cells assessed as of viable cell signal at minimum maximum cell growth incubated for 72 hrs by celltiter-glo assay relative to control; format: functional
[5] = test system: LNCaP; experiment: Antiproliferative activity against human LNCaP cells assessed as growth inhibition incubated for 72 hrs by celltiter-glo assay; format: functional
[6] = test system: SJSA-1; experiment: Antiproliferative activity against human SJSA-1 cells assessed as growth inhibition incubated for 72 hrs by celltiter-glo assay; format: functional
[7] = test system: HN5; experiment: Antiproliferative activity against human HN5 cells assessed as growth inhibition incubated for 72 hrs by celltiter-glo assay; format: functional
[8] = test system: NCI-H460; experiment: Antiproliferative activity against human NCI-H460 cells assessed as viable cell signal at maximum growth inhibition incubated for 72 hrs by celltiter-glo assay relative to control; format: functional
[9] = test system: COLO 205; experiment: Antitumor activity against human COLO 205 cells xenografted in Nude mouse assessed as tumor regression at 50 mg/kg, ip administered for 12 days; format: functional, organism-based; conditions: time 12.0 day
[10] = test system: K562; experiment: Antiproliferative activity against human K562 cells assessed as growth inhibition incubated for 72 hrs by celltiter-glo assay; format: functional
[11] = test system: SW480; experiment: Antiproliferative activity against human SW480 cells assessed as of viable cell signal at minimum maximum cell growth incubated for 72 hrs by celltiter-glo assay relative to control; format: functional
[12] = test system: Jurkat; experiment: Antiproliferative activity against human Jurkat cells assessed as growth inhibition incubated for 72 hrs by celltiter-glo assay; format: functional
[13] = test system: Jurkat; experiment: Antiproliferative activity against human Jurkat cells assessed as viable cell signal at maximum growth inhibition incubated for 72 hrs by celltiter-glo assay relative to control; format: functional
[14] = test system: HCC1937; experiment: Antiproliferative activity against human HCC1937 cells assessed as of viable cell signal at minimum maximum cell growth incubated for 72 hrs by celltiter-glo assay relative to control; format: functional
[15] = test system: OVCAR-4; experiment: Antiproliferative activity against human OVCAR-4 cells assessed as viable cell signal at maximum growth inhibition incubated for 72 hrs by celltiter-glo assay relative to control; format: functional
[16] = test system: COLO 205; experiment: Antitumor activity against human COLO 205 cells xenografted in Nude mouse assessed as increase in pIk1 level at 50 to 100 mg/kg, ip administered one dose every 2 day repeated for 12 days by immunohistochemistry analysis; format: functional, organism-based; conditions: dose 50-100 mg/kg, time 12.0 day
[17] = test system: NCI-H157; experiment: Antiproliferative activity against human NCI-H157 cells assessed as growth inhibition incubated for 72 hrs by celltiter-glo assay; format: functional
[18] = test system: ZR-75-1; experiment: Antiproliferative activity against human ZR-75-1 cells assessed as growth inhibition at > 250 nmol/L incubated for 72 hrs by celltiter-glo assay; format: functional, cell-based
[19] = test system: NCI-H358; experiment: Antiproliferative activity against human NCI-H358 cells assessed as of viable cell signal at minimum maximum cell growth incubated for 72 hrs by celltiter-glo assay relative to control; format: functional
[20] = test system: MCF7; experiment: Antiproliferative activity against human MCF7 cells assessed as of viable cell signal at minimum maximum cell growth incubated for 72 hrs by celltiter-glo assay relative to control; format: functional
[21] = test system: DU-145; experiment: Antiproliferative activity against human DU-145 cells assessed as of viable cell signal at minimum maximum cell growth incubated for 72 hrs by celltiter-glo assay relative to control; format: functional
[22] = test system: MDA-MB-231; experiment: Antiproliferative activity against human MDA-MB-231 cells assessed as viable cell signal at maximum growth inhibition incubated for 72 hrs by celltiter-glo assay relative to control; format: functional
[23] = test system: RPMI-8226; experiment: Antiproliferative activity against human RPMI-8226 cells assessed as viable cell signal at maximum growth inhibition incubated for 72 hrs by celltiter-glo assay relative to control; format: functional
[24] = test system: Calu-3; experiment: Antiproliferative activity against human Calu-3 cells assessed as viable cell signal at maximum growth inhibition incubated for 72 hrs by celltiter-glo assay relative to control; format: functional
[25] = test system: U-87 MG; experiment: Antiproliferative activity against human U-87 MG cells assessed as of viable cell signal at minimum maximum cell growth incubated for 72 hrs by celltiter-glo assay relative to control; format: functional, U-87MG ATCC
[26] = test system: T-24; experiment: Antiproliferative activity against human T24 cells assessed as of viable cell signal at minimum maximum cell growth incubated for 72 hrs by celltiter-glo assay relative to control; format: functional
[27] = test system: NCI-H1299; experiment: Antiproliferative activity against human NCI-H1299 cells assessed as of viable cell signal at minimum maximum cell growth incubated for 72 hrs by celltiter-glo assay relative to control; format: functional

## C[C@@H](Oc1cc(-n2cnc3ccc(CN4CCN(C)CC4)cc32)sc1C(N)=O)c1ccccc1C(F)(F)F [GSK-461364]
[1]
  Emax: 255%
[2]
  inhibition: 66%
[3]
  GI50: 35.8 nM
[4]
  Emin: 90.9%
[5]
  GI50: 15.3 nM
[6]
  GI50: 24.4 nM
[7]
  GI50: 15.4 nM
[8]
  Emax: 952%
[9]
  Activity: Active
[10]
  GI50: 19.4 nM
[11]
  Emin: 114.7%
[12]
  GI50: 18.6 nM
[13]
  Emax: 753%
[14]
  Emin: 100%
[15]
  Emax: 342%
[16]
  Activity: Active
[17]
  GI50: 25.2 nM
[18]
  Activity: Active
[19]
  Emin: 150%
[20]
  Emin: 125.4%
[21]
  Emin: 69.1%
[22]
  Emax: 520%
[23]
  Emax: 515%
[24]
  Emax: 190%
[25]
  Emin: 0.1%
[26]
  Emin: 109%
[27]
  Emin: 44.4%
